In PubChem BioAssay (NCI):
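Protocol summary: plate cells (96-well), add compound at 5 concentrations, incubate 48 h, interpolate endpoints linearly. At the TGI there is no net growth.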

What was measured:
Assay in all cases: NCI anticancer screen, dose series, 48 h
UACC-62 melanoma = tested on: UACC-62 melanoma
LOX IMVI melanoma = tested on: LOX IMVI melanoma
OVCAR-8 ovarian = tested on: OVCAR-8 ovarian
SN12C renal = tested on: SN12C renal
MALME-3M melanoma = tested on: MALME-3M melanoma
TK-10 renal = tested on: TK-10 renal
SF-268 CNS = tested on: SF-268 CNS
SK-MEL-2 melanoma = tested on: SK-MEL-2 melanoma
CAKI-1 renal = tested on: CAKI-1 renal
SF-295 CNS = tested on: SF-295 CNS
MCF7 breast = tested on: MCF7 breast
HL-60(TB) leukemia = tested on: HL-60(TB) leukemia
NCI-H226 lung = tested on: NCI-H226 lung

O=[N+]([O-])c1cccc(N=Nc2c(O)ccc3ccccc23)c1
TGI (UACC-62 melanoma): > 100 µM | TGI (LOX IMVI melanoma): > 100 µM | TGI (OVCAR-8 ovarian): > 100 µM | TGI (SN12C renal): > 100 µM | TGI (MALME-3M melanoma): > 100 µM | TGI (TK-10 renal): > 100 µM | TGI (SF-268 CNS): > 100 µM | TGI (SK-MEL-2 melanoma): > 100 µM | TGI (CAKI-1 renal): > 100 µM | TGI (SF-295 CNS): > 100 µM

CCCNC(=O)N1CC(CN2CCN(c3ccccc3)CC2)O/C1=N/C(=O)Nc1ccccc1 (stereo unspecified)
TGI (UACC-62 melanoma): > 100 µM | TGI (MCF7 breast): > 100 µM | TGI (HL-60(TB) leukemia): > 100 µM | TGI (LOX IMVI melanoma): > 100 µM | TGI (SN12C renal): > 100 µM | TGI (MALME-3M melanoma): > 100 µM | TGI (TK-10 renal): > 100 µM | TGI (SF-268 CNS): > 100 µM | TGI (SK-MEL-2 melanoma): > 100 µM | TGI (CAKI-1 renal): > 100 µM | TGI (SF-295 CNS): > 100 µM

CSCCC(C(=O)O)N(CC1(O)OCC(O)C(O)C1O)N=O (stereo unspecified)
TGI (UACC-62 melanoma): > 100 µM | TGI (HL-60(TB) leukemia): > 100 µM | TGI (LOX IMVI melanoma): > 100 µM | TGI (OVCAR-8 ovarian): > 100 µM | TGI (MALME-3M melanoma): > 100 µM | TGI (TK-10 renal): > 100 µM | TGI (SK-MEL-2 melanoma): > 100 µM

COC(=O)/C(C#N)=C(\N)c1c(C)c2ccccc2oc1=N
TGI (UACC-62 melanoma): > 100 µM | TGI (MCF7 breast): > 100 µM | TGI (HL-60(TB) leukemia): > 100 µM | TGI (LOX IMVI melanoma): > 100 µM | TGI (SN12C renal): > 100 µM | TGI (TK-10 renal): > 100 µM | TGI (SK-MEL-2 melanoma): > 100 µM | TGI (SF-295 CNS): > 100 µM

S=C=NC1CCC(c2cc3ccccc3s2)(N2CCCCC2)CC1 (stereo unspecified)
TGI (UACC-62 melanoma): 3.6 µM | TGI (MCF7 breast): 5.72 µM | TGI (HL-60(TB) leukemia): 3.09 µM | TGI (LOX IMVI melanoma): 3.03 µM | TGI (SN12C renal): 3.77 µM | TGI (MALME-3M melanoma): 3.04 µM | TGI (TK-10 renal): 3.45 µM | TGI (SF-268 CNS): 4.3 µM | TGI (CAKI-1 renal): 3.45 µM | TGI (SF-295 CNS): 7.39 µM

O=C1c2ccccc2C(=O)N1CC(CN1C(=O)c2ccccc2C1=O)(C(=O)OCc1ccccc1)C(=O)OCc1ccccc1
TGI (UACC-62 melanoma): > 100 µM | TGI (HL-60(TB) leukemia): > 100 µM | TGI (OVCAR-8 ovarian): > 100 µM | TGI (SN12C renal): > 100 µM | TGI (MALME-3M melanoma): > 100 µM | TGI (SK-MEL-2 melanoma): > 100 µM | TGI (NCI-H226 lung): > 100 µM | TGI (CAKI-1 renal): > 100 µM | TGI (SF-295 CNS): > 100 µM

COc1ccc(-c2cc(=O)c3c(O)cc(O)cc3o2)c(OC)c1OC
TGI (UACC-62 melanoma): > 100 µM | TGI (HL-60(TB) leukemia): > 100 µM | TGI (LOX IMVI melanoma): > 100 µM | TGI (SN12C renal): > 100 µM | TGI (MALME-3M melanoma): > 100 µM | TGI (TK-10 renal): > 100 µM | TGI (SF-268 CNS): > 100 µM | TGI (SK-MEL-2 melanoma): > 100 µM | TGI (NCI-H226 lung): > 100 µM | TGI (CAKI-1 renal): > 100 µM | TGI (SF-295 CNS): > 100 µM

COc1cc(C2c3c(ccc4ccccc34)C(=O)C3CCC(=O)N32)cc(OC)c1O (stereo unspecified)
TGI (UACC-62 melanoma): > 25 µM | TGI (MCF7 breast): > 25 µM | TGI (HL-60(TB) leukemia): > 25 µM | TGI (OVCAR-8 ovarian): > 25 µM | TGI (SN12C renal): > 25 µM | TGI (SK-MEL-2 melanoma): > 25 µM | TGI (NCI-H226 lung): > 25 µM | TGI (SF-295 CNS): > 25 µM

CCO/C(Cc1ccc(Cl)cc1)=N/NC(N)=S
TGI (UACC-62 melanoma): > 100 µM | TGI (MCF7 breast): > 100 µM | TGI (LOX IMVI melanoma): > 100 µM | TGI (OVCAR-8 ovarian): > 100 µM | TGI (SN12C renal): > 100 µM | TGI (MALME-3M melanoma): > 100 µM | TGI (TK-10 renal): > 100 µM | TGI (SK-MEL-2 melanoma): > 100 µM | TGI (NCI-H226 lung): > 100 µM | TGI (CAKI-1 renal): > 100 µM | TGI (SF-295 CNS): > 100 µM

COC(=O)C1C=CCON2CCc3c(n(S(=O)(=O)c4ccccc4)c4ccccc34)C12 (stereo unspecified)
TGI (UACC-62 melanoma): > 62.5 µM | TGI (HL-60(TB) leukemia): > 67.2 µM | TGI (LOX IMVI melanoma): > 60.9 µM | TGI (OVCAR-8 ovarian): > 100 µM | TGI (SN12C renal): > 100 µM | TGI (MALME-3M melanoma): > 100 µM | TGI (TK-10 renal): > 100 µM | TGI (SF-268 CNS): > 100 µM | TGI (SK-MEL-2 melanoma): > 100 µM | TGI (NCI-H226 lung): > 91.1 µM | TGI (CAKI-1 renal): 98.7 µM | TGI (SF-295 CNS): > 100 µM

CCCCOC(=O)c1cc(C(=CCC[C@H]2CC[C@@]3(C)[C@@H](CC[C@@H]4[C@@H]3CC[C@]3(C)[C@@H](C(C)CCCC(C)C)CC[C@@H]43)C2)c2cc(Cl)c(O)c(C(=O)OCCCC)c2)cc(Cl)c1O (stereo partly specified)
TGI (UACC-62 melanoma): > 50 µM | TGI (HL-60(TB) leukemia): > 50 µM | TGI (LOX IMVI melanoma): > 50 µM | TGI (OVCAR-8 ovarian): > 50 µM | TGI (SN12C renal): > 50 µM | TGI (SF-268 CNS): > 50 µM | TGI (SK-MEL-2 melanoma): > 50 µM | TGI (NCI-H226 lung): > 50 µM | TGI (CAKI-1 renal): > 50 µM
